Assay results reported in patent publication US10577368B2 (The United States of America, as represented by the …, priority 2013, dated 2020).

Legend:
[1] = biological target: hA3AR (Homo sapiens (Human), UniProt P0DMS8); test: Radioligand binding at hA3AR, CHO cell membranes, [125I]I-AB-MECA
[2] = biological target: hA2AAR (Homo sapiens (Human), UniProt P29274); test: Radioligand binding at hA2AAR, HEK293 cell membranes, [3H]CGS21680; details: for inhibition at 10 µM: read-out: hA2AAR % inhibition; for hA2AAR % inhibition: inhibition of binding at 10 μM
[3] = biological target: hA1AR (Homo sapiens (Human), UniProt P30542); test: Radioligand binding at hA1AR, CHO cell membranes, [3H]R-PIA; details: for inhibition at 10 µM: read-out: hA1AR % inhibition; for hA1AR % inhibition: inhibition of binding at 10 μM
[4] = test system: chronic constriction injury model of neuropathic pain; test: CCI model of neuropathic pain, reversal of mechano-allodynia; type: in vivo, mice; details: for Time of peak protection / Max. effect Emax (% ± SEM) / Effect at 3 h (% ± SEM): 3 μmol/kg p.o., mice; for Time of peak protection / Max. effect Emax (% ± SEM): ipsilateral hind paw; for Efficacy in reversing NP in vivo (of full reversal at peak effect): CCI model

Chain of hA1AR (P30542 whole entry): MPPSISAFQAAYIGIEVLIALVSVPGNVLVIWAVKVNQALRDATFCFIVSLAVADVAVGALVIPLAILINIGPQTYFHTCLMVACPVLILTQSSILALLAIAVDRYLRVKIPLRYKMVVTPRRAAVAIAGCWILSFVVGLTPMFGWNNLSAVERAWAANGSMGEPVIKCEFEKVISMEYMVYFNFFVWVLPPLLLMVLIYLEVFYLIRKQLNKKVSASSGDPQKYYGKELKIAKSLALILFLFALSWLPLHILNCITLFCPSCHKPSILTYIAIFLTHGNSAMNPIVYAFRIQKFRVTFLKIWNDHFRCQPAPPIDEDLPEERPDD
Chain of hA3AR (P0DMS8 whole entry): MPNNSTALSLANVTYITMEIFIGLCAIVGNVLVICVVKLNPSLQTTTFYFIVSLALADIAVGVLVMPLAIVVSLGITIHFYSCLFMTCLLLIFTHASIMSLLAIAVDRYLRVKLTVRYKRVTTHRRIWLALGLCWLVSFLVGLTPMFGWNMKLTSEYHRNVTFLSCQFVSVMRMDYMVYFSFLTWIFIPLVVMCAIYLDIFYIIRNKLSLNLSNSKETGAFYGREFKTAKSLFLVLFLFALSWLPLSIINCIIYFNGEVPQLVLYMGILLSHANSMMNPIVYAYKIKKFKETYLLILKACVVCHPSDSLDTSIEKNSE
Chain of hA2AAR (P29274 whole entry): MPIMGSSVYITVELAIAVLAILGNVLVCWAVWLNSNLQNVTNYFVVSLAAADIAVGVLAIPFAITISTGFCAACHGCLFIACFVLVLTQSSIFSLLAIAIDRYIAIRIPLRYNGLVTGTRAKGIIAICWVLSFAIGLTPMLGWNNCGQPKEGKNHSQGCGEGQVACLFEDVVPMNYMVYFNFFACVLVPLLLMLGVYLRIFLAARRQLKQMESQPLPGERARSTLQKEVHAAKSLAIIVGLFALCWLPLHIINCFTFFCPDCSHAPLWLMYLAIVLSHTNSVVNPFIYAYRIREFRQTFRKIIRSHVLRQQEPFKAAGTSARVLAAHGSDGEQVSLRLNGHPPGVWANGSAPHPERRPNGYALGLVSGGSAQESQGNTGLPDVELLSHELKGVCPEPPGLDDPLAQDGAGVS

Row | Ki [1] | inhibition at 10 µM [2] | inhibition at 10 µM [3] | SMILES | Time of peak protection [4] | also measured
1 | 16.5 ± 1.9 nM | 1% | – | CNC(=O)[C@@]12C[C@@H]1[C@@H](n1cnc3c(NC4CC4c4cccc(F)c4)nc(C#Cc4ccccc4)nc31)[C@H](O)[C@@H]2O (mixture of isomers) [Compound 23, (1S,2R,3S,4R,5S)-4-(6-((2-(3-Fluorophenyl)cyclopropyl)amino)-2-(phenylethynyl)-9H-purin-9-yl)-2,3-dihydroxy-N-methylbicyclo[3.1.0]hexane-1-carboxamide] | – | –
2 | 14.5 ± 1 nM | – | – | CNC(=O)[C@@]12C[C@@H]1[C@@H](n1cnc3c(NC4CC4c4cccc(Br)c4)nc(C#Cc4ccccc4)nc31)[C@H](O)[C@@H]2O (mixture of isomers) [Compound 25, (1S,2R,3S,4R,5S)-4-(6-((2-(3-Bromophenyl)cyclopropyl)amino)-2-(phenylethynyl)-9H-purin-9-yl)-2,3-dihydroxy-N-methylbicyclo[3.1.0]hexane-1-carboxamide] | – | –
3 | 20.2 ± 2.1 nM | – | – | CNC(=O)[C@@]12C[C@@H]1[C@@H](n1cnc3c(NC4CC4c4ccc(F)c(F)c4)nc(C#Cc4ccccc4)nc31)[C@H](O)[C@@H]2O (mixture of isomers) [Compound 26, (1 S,2R,3S,4R,5S)-4-(6-((2-(3,4-Difluorophenyl)cyclopropyl)amino)-2-(phenylethynyl)-9H-purin-9-yl)-2,3-dihydroxy-N-methylbicyclo[3.1.0]hexane-1-carboxamide] | – | –
4 | – | 12 ± 6% | 16 ± 10% | CNC(=O)[C@@]12C[C@@H]1[C@@H](n1cnc3c(NC)nc(C#Cc4cccnc4)nc31)[C@H](O)[C@@H]2O [Compound 15, (1S,2R,3S,4R,5S)-2,3-Dihydroxy-N-methyl-4-(6-(methylamino)-2-(pyridin-3-ylethynyl)-9H-purin-9-yl)bicyclo[3.1.0]hexane-1-carboxamide] | 0.5 to 2 h | Efficacy in reversing NP in vivo (of full reversal at peak effect) [4]: low efficacy
5 | – | 18 ± 3% | 13% | CNC(=O)[C@@]12C[C@@H]1[C@@H](n1cnc3c(NC)nc(C#Cc4cc5ccccc5o4)nc31)[C@H](O)[C@@H]2O [Compound 33, (1S,2R,3S,4R,5S)-4-(2-(Benzofuran-2-ylethynyl)-6-(methylamino)-9H-purin-9-yl)-2,3-dihydroxy-N-methylbicyclo[3.1.0]hexane-1-carboxamide] | 1 h | Max. effect Emax (% ± SEM) [4]: 87.4 ± 0.6%
6 | 1.91 ± 0.85 nM | – | – | CNC(=O)[C@]12CC1[C@@H](n1cnc3c(NC)nc(I)nc31)[C@H](O)C2O (some centres unmarked) [Compound 114] | – | –
7 | 1.53 ± 0.45 nM | – | – | CNC(=O)[C@]12CC1[C@@H](n1cnc3c(NC4CCC4)nc(I)nc31)[C@H](O)C2O (some centres unmarked) [Compound 118] | – | Ki [2]: > 10000 nM
8 | 0.6 ± 0.08 nM | – | – | CCNc1nc(N=[N+]=[N-])nc2c1ncn2[C@@H]1C2C[C@]2(C(=O)NC)C(O)[C@H]1O (some centres unmarked) [Compound 123] | – | hA2AAR % inhibition [2]: 11 ± 6%
9 | 7.13 nM | – | – | CNC(=O)[C@]12CC1[C@@H](n1cnc3c(NC4CCC4)nc(-n4cc(-c5ccc(Cl)s5)nn4)nc31)[C@H](O)C2O (some centres unmarked) [Compound 125] | 0.5 to 3 h | Effect at 3 h (% ± SEM) [4]: 90%; Max. effect Emax (% ± SEM) [4]: 100%

More lines, now with the values behind:

Row | SMILES | Ki [1] | inhibition at 10 µM [2] | inhibition at 10 µM [3] | Time of peak protection [4] | also measured
10 | CNC(=O)[C@@]12C[C@@H]1[C@@H](n1cnc3c(NC4CC4c4cccc(C)c4)nc(C#Cc4ccccc4)nc31)[C@H](O)[C@@H]2O (mixture of isomers) [Compound 22, (1S,2R,3S,4R,5S)-2,3-Dihydroxy-N-methyl-4-(2-(phenylethynyl)-6-((2-(m-tolyl)cyclopropyl)amino)-9H-purin-9-yl)bicyclo[3.1.0]hexane-1-carboxamide] | 17.6 ± 1.3 nM | – | – | – | –
11 | CNC(=O)[C@@]12C[C@@H]1[C@@H](n1cnc3c(NC4CC4c4cccc(Cl)c4)nc(C#Cc4ccccc4)nc31)[C@H](O)[C@@H]2O (mixture of isomers) [Compound 24, (1S,2R,3S,4R,5S)-4-(6-((2-(3-Chlorophenyl)cyclopropyl)amino)-2-(phenylethynyl)-9H-purin-9-yl)-2,3-dihydroxy-N-methylbicyclo[3.1.0]hexane-1-carboxamide] | 11.2 ± 4.2 nM | – | – | – | –
12 | CNC(=O)[C@@]12C[C@@H]1[C@@H](n1cnc3c(NC)nc(C#Cc4cccc(C(F)(F)F)c4)nc31)C(O)C2O (stereo in doubt) [Compound 14, (1 S,2S,3R,4R,5S)-2,3-Dihydroxy-N-methyl-4-(6-(methylamino)-2-((3-(trifluoromethyl)phenyl)ethynyl)-9H-purin-9-yl)bicyclo[3.1.0]hexane-1-carboxamide] | – | 12 ± 6% | 10% | 0.5 to 1 h | –
13 | CNC(=O)[C@@]12C[C@@H]1[C@@H](n1cnc3c(C)nc(C#Cc4ccc(C(C)(C)C)cc4)nc31)C(O)C2O (stereo in doubt) [Compound 41, (1S,2S,3R,4R,5S)-4-(2-((4-(tert-butyl)phenyl)ethynyl)-6-methyl-9H-purin-9-yl)-2,3-dihydroxy-N-methylbicyclo[3.1.0]hexane-1-carboxamide] | – | 34 ± 7% | 15 ± 6% | – | –
14 | CNC(=O)[C@@]12C[C@@H]1[C@@H](n1cnc3c(NC)nc(C#Cc4cccnn4)nc31)[C@H](O)[C@@H]2O [Compound 10, (1S,2R,3S,4R,5S)-2,3-Dihydroxy-N-methyl-4-(6-(methylamino)-2-(pyridazin-3-ylethynyl)-9H-purin-9-yl)bicyclo[3.1.0]hexane-1-carboxamide] | – | 13 ± 8% | 11% | 0.5 h | Efficacy in reversing NP in vivo (of full reversal at peak effect) [4]: less than full efficacy
15 | CNC(=O)[C@@]12C[C@@H]1[C@@H](n1cnc3c(NC)nc(C#CC4CCCCC4)nc31)[C@H](O)[C@@H]2O [Compound 19, (1S,2R,3S,4R,5S)-4-(2-(Cyclohexylethynyl)-6-(methylamino)-9H-purin-9-yl)-2,3-dihydroxy-N-methylbicyclo[3.1.0]hexane-1-carboxamide] | – | 45 ± 6% | 15% | 1 to 2 h | Max. effect Emax (% ± SEM) [4]: 64.1 ± 10.5%; Efficacy in reversing NP in vivo (of full reversal at peak effect) [4]: 60-70%
16 | CNC(=O)[C@@]12C[C@@H]1[C@@H](n1cnc3c(NC)nc(C#CC4CC4)nc31)[C@H](O)[C@@H]2O [Compound 20, (1S,2R,3S,4R,5S)-4-(2-(Cyclopropylethynyl)-6-(methylamino)-9H-purin-9-yl)-2,3-dihydroxy-N-methylbicyclo[3.1.0]hexane-1-carboxamide] | – | 15 ± 10% | 38% | – | Efficacy in reversing NP in vivo (of full reversal at peak effect) [4]: 60-70%
17 | CNC(=O)[C@@]12C[C@@H]1[C@@H](n1cnc3c(NC)nc(C#Cc4cc(C)c(C)o4)nc31)[C@H](O)[C@@H]2O [Compound 29, (1S,2R,3S,4R,5S)-4-(2-((4,5-Dimethylfuran-2-yl)ethynyl)-6-(methylamino)-9H-purin-9-yl)-2,3-dihydroxy-N-methylbicyclo[3.1.0]hexane-1-carboxamide] | – | 21 ± 3% | 15% | 1 h | –
18 | CNC(=O)[C@@]12C[C@@H]1[C@@H](n1cnc3c(NC)nc(C#Cc4ccc(CO)cc4)nc31)[C@H](O)[C@@H]2O [Compound 31, (1S,2R,3S,4R,5S)-2,3-Dihydroxy-4-(2-((4-(hydroxymethyl)phenyl)ethynyl)-6-(methylamino)-9H-purin-9-yl)-N-methylbicyclo[3.1.0]hexane-1-carboxamide] | – | 11 ± 7% | 16% | 1 h | –
19 | CNC(=O)[C@]12CC1[C@@H](n1cnc3c(NC)nc(-n4cc(-c5ccc(F)c(F)c5)nn4)nc31)[C@H](O)C2O (some centres unmarked) [Compound 102] | – | – | – | 1 h | Effect at 3 h (% ± SEM) [4]: 8 ± 8%; Max. effect Emax (% ± SEM) [4]: 55 ± 6%; hA2AAR % inhibition [2]: 39 ± 4%
20 | CNC(=O)[C@]12CC1[C@@H](n1cnc3c(NC)nc(-n4cc(-c5ccco5)nn4)nc31)[C@H](O)C2O (some centres unmarked) [Compound 107] | 0.96 ± 0.09 nM | – | – | 1 h | Effect at 3 h (% ± SEM) [4]: 21 ± 7%; Max. effect Emax (% ± SEM) [4]: 65 ± 8%; hA2AAR % inhibition [2]: 51 ± 1%
21 | CNC(=O)[C@]12CC1[C@@H](n1cnc3c(NC)nc(N=[N+]=[N-])nc31)[C@H](O)C2O (some centres unmarked) [Compound 113] | 0.54 ± 0.1 nM | – | – | – | hA2AAR % inhibition [2]: 1 ± 1%
22 | CNC(=O)[C@]12CC1[C@@H](n1cnc3c(NC4CCC4)nc(N=[N+]=[N-])nc31)[C@H](O)C2O (some centres unmarked) [Compound 115] | 0.85 ± 0.1 nM | – | – | – | hA2AAR % inhibition [2]: 46%
23 | CNC(=O)[C@]12CC1[C@@H](n1cnc3c(NCc4cccc(Cl)c4)nc(I)nc31)[C@H](O)C2O (some centres unmarked) [Compound 116] | – | – | – | – | Ki [2]: > 10000 nM
24 | CNC(=O)[C@]12CC1[C@@H](n1cnc3c(NCc4cccc(Cl)c4)nc(-n4cc(-c5ccc(Cl)s5)nn4)nc31)[C@H](O)C2O (some centres unmarked) [Compound 120] | 11.7 nM | – | – | 0.5 to 4 h | Effect at 3 h (% ± SEM) [4]: 100%; Max. effect Emax (% ± SEM) [4]: 100%
25 | CCNc1nc(I)nc2c1ncn2[C@@H]1C2C[C@]2(C(=O)NC)C(O)[C@H]1O (some centres unmarked) [Compound 122] | 1.22 ± 0.21 nM | – | – | – | hA2AAR % inhibition [2]: 11 ± 7%
26 | CNC(=O)[C@]12CC1[C@@H](n1cnc3c(NCc4cccc(Cl)c4)nc(N=[N+]=[N-])nc31)[C@H](O)C2O (some centres unmarked) [Compound 124] | 1.08 ± 0.75 nM | – | – | – | Ki [2]: 2770 nM
27 | CNC(=O)[C@]12CC1[C@@H](n1cnc3c(NC)nc(C#Cc4ccccc4)nc31)[C@H](O)C2O (some centres unmarked) [Compound 400, reference compound] | – | – | – | 0.5 to 1 h | hA1AR % inhibition [3]: (18% ± 8%); Effect at 3 h (% ± SEM) [4]: 5.0 ± 5.0%; Max. effect Emax (% ± SEM) [4]: 44.1 ± 9.9%; Efficacy in reversing NP in vivo (of full reversal at peak effect) [4]: ~30%; hA2AAR % inhibition [2]: (14% ± 7%)
28 | CNC(=O)[C@]12CC1[C@@H](n1cnc3c(NC)nc(C#Cc4ccccn4)nc31)[C@H](O)C2O (some centres unmarked) [Compound 401, reference compound] | – | – | – | – | hA1AR % inhibition [3]: (13% ± 8%); Efficacy in reversing NP in vivo (of full reversal at peak effect) [4]: low efficacy; hA2AAR % inhibition [2]: (13% ± 4%)
